Data taken from publication PMC3961306, “Comparison of the Cancer Gene Targeting and Biochemical Selectivities of All Targeted Kinase Inhibitors Approved for Clinical Use” (PLoS ONE, 2014).

How the values were obtained:
Experiment in all cases: Kinase profiling in a biochemical assay panel (mobility shift assays and ELISA), %-inhibition at 1 μM; selectivity entropy
[1] = target: panel of more than 300 wild-type and mutant kinases (313 kinase panel) (Homo sapiens, UniProt P17252)
[2] = target: panel of more than 300 wild-type and mutant kinases (313 kinase panel) (Homo sapiens, UniProt O75116)
[3] = target: panel of more than 300 wild-type and mutant kinases (313 kinase panel) (Homo sapiens, UniProt Q9H0K1)
[4] = target: T1, panel of more than 300 wild-type and mutant kinases (313 kinase panel) (Homo sapiens, UniProt Q8TF76)
T1 sequence (Q8TF76 1-798): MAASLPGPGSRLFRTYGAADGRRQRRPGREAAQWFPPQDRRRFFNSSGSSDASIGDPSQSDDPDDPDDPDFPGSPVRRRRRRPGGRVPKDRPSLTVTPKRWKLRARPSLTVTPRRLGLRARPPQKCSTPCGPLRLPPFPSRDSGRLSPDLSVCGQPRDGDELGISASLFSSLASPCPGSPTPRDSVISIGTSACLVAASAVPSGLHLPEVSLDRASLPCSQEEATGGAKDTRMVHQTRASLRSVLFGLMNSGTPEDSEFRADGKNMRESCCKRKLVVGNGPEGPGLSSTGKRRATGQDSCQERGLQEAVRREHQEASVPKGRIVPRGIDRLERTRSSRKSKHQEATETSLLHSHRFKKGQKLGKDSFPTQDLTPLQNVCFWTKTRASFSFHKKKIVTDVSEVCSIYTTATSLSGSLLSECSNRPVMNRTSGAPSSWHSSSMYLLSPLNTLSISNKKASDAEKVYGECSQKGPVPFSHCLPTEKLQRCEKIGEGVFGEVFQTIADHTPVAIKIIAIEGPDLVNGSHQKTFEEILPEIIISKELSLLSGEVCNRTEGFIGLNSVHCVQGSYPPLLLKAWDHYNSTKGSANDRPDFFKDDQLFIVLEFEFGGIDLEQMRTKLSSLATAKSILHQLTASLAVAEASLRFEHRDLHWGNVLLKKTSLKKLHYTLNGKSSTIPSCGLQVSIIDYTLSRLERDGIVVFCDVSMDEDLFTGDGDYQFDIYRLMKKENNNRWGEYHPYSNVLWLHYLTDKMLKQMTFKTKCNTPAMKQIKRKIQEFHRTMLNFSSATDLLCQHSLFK

[5] = target: panel of more than 300 wild-type and mutant kinases (313 kinase panel) (Homo sapiens, UniProt P29317)
[6] = target: T2, panel of more than 300 wild-type and mutant kinases (313 kinase panel) (Homo sapiens, UniProt Q99683)
T2 sequence (Q99683 1-1374): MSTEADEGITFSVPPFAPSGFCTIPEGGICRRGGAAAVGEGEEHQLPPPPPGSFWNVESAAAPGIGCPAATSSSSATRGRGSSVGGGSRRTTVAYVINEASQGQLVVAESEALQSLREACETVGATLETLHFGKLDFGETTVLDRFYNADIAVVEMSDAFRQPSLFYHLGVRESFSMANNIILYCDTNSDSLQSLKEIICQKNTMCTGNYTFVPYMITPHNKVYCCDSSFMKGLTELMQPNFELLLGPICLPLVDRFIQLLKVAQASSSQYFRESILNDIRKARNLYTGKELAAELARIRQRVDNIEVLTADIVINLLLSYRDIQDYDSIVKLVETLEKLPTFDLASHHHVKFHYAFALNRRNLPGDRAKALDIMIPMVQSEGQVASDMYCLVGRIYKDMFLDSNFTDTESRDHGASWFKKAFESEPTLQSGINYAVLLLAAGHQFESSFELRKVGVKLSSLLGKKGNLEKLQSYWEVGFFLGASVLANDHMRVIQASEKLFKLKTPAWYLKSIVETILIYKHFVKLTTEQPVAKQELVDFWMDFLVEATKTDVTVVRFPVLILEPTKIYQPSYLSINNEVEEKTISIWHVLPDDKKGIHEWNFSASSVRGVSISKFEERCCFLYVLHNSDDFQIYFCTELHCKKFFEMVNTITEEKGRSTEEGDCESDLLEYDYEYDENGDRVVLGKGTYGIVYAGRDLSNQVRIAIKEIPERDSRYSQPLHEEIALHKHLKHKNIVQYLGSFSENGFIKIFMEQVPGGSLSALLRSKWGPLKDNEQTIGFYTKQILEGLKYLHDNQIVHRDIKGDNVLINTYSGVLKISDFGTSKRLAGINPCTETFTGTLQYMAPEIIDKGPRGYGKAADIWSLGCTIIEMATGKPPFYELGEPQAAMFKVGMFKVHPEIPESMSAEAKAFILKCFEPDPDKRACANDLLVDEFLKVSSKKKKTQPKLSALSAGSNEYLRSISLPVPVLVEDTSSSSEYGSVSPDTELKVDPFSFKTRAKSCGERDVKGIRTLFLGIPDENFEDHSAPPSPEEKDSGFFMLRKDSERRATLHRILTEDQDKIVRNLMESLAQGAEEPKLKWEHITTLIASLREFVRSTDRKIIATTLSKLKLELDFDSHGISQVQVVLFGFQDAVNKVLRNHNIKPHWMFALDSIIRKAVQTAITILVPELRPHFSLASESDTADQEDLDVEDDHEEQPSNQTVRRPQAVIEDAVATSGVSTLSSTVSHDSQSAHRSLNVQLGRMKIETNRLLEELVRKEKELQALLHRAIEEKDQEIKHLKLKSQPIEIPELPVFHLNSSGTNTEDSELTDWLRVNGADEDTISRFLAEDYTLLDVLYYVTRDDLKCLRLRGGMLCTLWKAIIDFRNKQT

[7] = target: panel of more than 300 wild-type and mutant kinases (313 kinase panel) (Homo sapiens, UniProt P28482)
[8] = target: panel of more than 300 wild-type and mutant kinases (313 kinase panel) (Homo sapiens, UniProt P19784)
[9] = kinase Haspin, compound at 1 μM
[10] = kinase MAP3K5, compound at 1 μM

panel of more than 300 wild-type and mutant kinases (313 kinase panel) (Homo sapiens, UniProt Q9H0K1), sequence (Q9H0K1 whole entry, change not shown): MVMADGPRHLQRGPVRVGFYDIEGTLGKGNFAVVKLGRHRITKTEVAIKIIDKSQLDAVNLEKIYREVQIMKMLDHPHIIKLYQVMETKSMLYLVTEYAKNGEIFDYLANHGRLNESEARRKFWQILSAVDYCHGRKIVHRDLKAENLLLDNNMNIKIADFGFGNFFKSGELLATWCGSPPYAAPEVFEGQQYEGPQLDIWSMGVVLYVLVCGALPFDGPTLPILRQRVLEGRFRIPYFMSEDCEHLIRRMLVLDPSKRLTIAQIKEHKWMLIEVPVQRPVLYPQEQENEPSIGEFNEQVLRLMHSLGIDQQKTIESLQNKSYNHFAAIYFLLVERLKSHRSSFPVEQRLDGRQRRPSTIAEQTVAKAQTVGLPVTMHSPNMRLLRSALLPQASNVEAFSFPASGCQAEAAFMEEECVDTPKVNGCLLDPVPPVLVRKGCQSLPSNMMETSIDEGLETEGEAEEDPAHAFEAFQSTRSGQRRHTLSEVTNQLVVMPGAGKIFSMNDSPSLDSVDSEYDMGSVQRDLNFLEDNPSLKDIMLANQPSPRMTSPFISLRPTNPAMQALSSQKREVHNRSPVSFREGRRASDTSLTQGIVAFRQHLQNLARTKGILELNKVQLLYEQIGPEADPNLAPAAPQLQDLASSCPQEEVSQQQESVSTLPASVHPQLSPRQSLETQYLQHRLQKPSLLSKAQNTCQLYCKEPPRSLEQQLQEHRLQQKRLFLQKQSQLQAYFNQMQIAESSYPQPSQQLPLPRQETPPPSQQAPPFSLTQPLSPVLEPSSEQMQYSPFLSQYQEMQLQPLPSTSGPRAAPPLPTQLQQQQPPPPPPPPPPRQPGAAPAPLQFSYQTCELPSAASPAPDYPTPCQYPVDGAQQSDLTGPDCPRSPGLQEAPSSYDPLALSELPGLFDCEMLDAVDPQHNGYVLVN
panel of more than 300 wild-type and mutant kinases (313 kinase panel) (Homo sapiens, UniProt P19784), sequence (P19784 whole entry, change not shown): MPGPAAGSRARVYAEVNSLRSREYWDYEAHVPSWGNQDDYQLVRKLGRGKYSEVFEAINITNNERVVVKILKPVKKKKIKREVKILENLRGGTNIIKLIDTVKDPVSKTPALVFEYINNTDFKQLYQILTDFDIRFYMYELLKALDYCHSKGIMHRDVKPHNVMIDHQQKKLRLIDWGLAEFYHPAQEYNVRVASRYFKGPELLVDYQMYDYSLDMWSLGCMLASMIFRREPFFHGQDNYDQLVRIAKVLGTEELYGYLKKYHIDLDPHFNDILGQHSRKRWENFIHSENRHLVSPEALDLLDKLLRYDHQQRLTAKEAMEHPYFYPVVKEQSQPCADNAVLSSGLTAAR

Structure (SMILES) | %-inhibition of PKCα ([1]; kinase PKCα, 1 μM) [%] | %-inhibition of ROCK2 ([2]; kinase ROCK2, 1 μM) [%] | %-inhibition of QIK ([3]; kinase QIK, 1 μM) [%] | %-inhibition of Haspin [4, 9] [%] | %-inhibition of EPHA2 ([5]; kinase EPHA2, compound at 1 μM) [%] | %-inhibition of MAP3K5 [6, 10] [%] | %-inhibition of Erk2 ([7]; kinase Erk2, compound at 1 μM) [%] | %-inhibition, CK2α2/β ([8]; kinase CK2α2/β, 1 μM compound) [%] | %-inhibition of Haspin ([4]; 1 µM) [%] | %-inhibition of EPHA2 ([5]; 1 µM) [%] | %-inhibition of PKCα ([1]; 1 µM) [%] | %-inhibition of MAP3K5 ([6]; 1 µM) [%] | %-inhibition of Erk2 ([7]; 1 µM) [%] | %-inhibition, CK2α2/β ([8]; 1 µM) [%] | %-inhibition of ROCK2 ([2]; 1 µM) [%] | %-inhibition of QIK ([3]; 1 µM) [%]
COc1cc(Nc2c(C#N)cnc3cc(OCCCN4CCN(C)CC4)c(OC)cc23)c(Cl)cc1Cl [bosutinib] | 54 | 28 | 100 |  |  |  |  |  |  |  |  |  |  |  |  | 
COc1cc2nccc(Oc3ccc(NC(=O)C4(C(=O)Nc5ccc(F)cc5)CC4)cc3)c2cc1OC [cabozantinib] | -8.47 | 15 | 0.408 | 8 | 98 | 1.72 | -8 | 9 |  |  |  |  |  |  |  | 
C[C@@H](Oc1cc(-c2cnn(C3CCNCC3)c2)cnc1N)c1c(Cl)ccc(F)c1Cl [crizotinib] | -8.47 | 4.25 | 38 | 7 |  | 1.11 | -4.58 | -10 |  |  |  |  |  |  |  | 
CC(C)(C)c1nc(-c2cccc(NS(=O)(=O)c3c(F)cccc3F)c2F)c(-c2ccnc(N)n2)s1 [dabrafenib] |  | 14 | 80 | 9 | 7 |  | -8 |  |  |  |  |  |  |  |  | 
Cc1nc(Nc2ncc(C(=O)Nc3c(C)cccc3Cl)s2)cc(N2CCN(CCO)CC2)n1 [dasatinib] |  |  |  | -13 |  | -1.69 |  | -4.67 |  |  |  |  |  |  |  | 
C#Cc1cccc(Nc2ncnc3cc(OCCOC)c(OCCOC)cc23)c1 [erlotinib] |  |  |  |  |  |  |  |  | -8 | 18 | 8 | 5 | -2 | -5.48 | 4.44 | 18
CO[C@H]1C[C@@H]2CC[C@@H](C)[C@@](O)(O2)C(=O)C(=O)N2CCCC[C@H]2C(=O)O[C@H]([C@H](C)C[C@@H]2CC[C@@H](OCCO)[C@H](OC)C2)CC(=O)[C@H](C)/C=C(\C)[C@@H](O)[C@@H](OC)C(=O)[C@H](C)C[C@H](C)/C=C/C=C/C=C/1C [everolimus] | -11 | -5.49 | -3 | -0.358 | -4 | 2.56 | -7.44 | -1.28 |  |  |  |  |  |  |  | 
O=S(=O)(c1cccc2cnccc12)N1CCCNCC1 [fasudil] |  |  | 3.26 | 72 | -7 | -15 | -7 | -3.75 |  |  |  |  |  |  |  | 
CS(=O)(=O)CCNCc1ccc(-c2ccc3ncnc(Nc4ccc(OCc5cccc(F)c5)c(Cl)c4)c3c2)o1 [lapatinib] | 1 |  | -4.72 | 3.3 | 1.22 | 6 | -7 | -3.45 |  |  |  |  |  |  | -2 | 
Cc1cn(-c2cc(NC(=O)c3ccc(C)c(Nc4nccc(-c5cccnc5)n4)c3)cc(C(F)(F)F)c2)cn1 [nilotinib] | 6.55 | -27 | -36 | 2.56 |  | -2.28 | 1.49 |  |  | 95 |  |  |  | -4.26 |  | 
Cc1ccc(Nc2nccc(N(C)c3ccc4c(C)n(C)nc4c3)n2)cc1S(N)(=O)=O [pazopanib] | 6 | -0.78 | 17 | -0.746 | 15 | 18 | -0.636 | 0.17 |  |  |  |  |  |  |  | 
Cc1ccc(C(=O)Nc2ccc(CN3CCN(C)CC3)c(C(F)(F)F)c2)cc1C#Cc1cnc2cccnn12 [ponatinib] | -3.29 | 63 | 51 |  | 102 |  |  |  |  |  |  |  |  |  |  | 
CCN(CC)CCNC(=O)c1c(C)[nH]c(/C=C2\C(=O)Nc3ccc(F)cc32)c1C [sunitinib] |  |  |  |  |  |  |  | 25 |  |  |  |  |  |  |  | 
